Activity calls are given as the source filed them. The calls are words filed in the database; no cut-off is given here.
Assays:
[1] = system: Rattus norvegicus; assay: Cytotoxicity was determined by hypothermia induction after intravenous administration in rat; format: functional
[2] = system: Mus musculus; assay: In vivo immunosuppression in murine models by splenic T-cell proliferation assay after intravenous administration; format: functional
[3] = system: Rattus norvegicus; assay: The compound was tested for % reduction of nephrotoxicity in rat after intravenous administration at dose 10 mg/kg; format: functional
[4] = biological target: Peptidyl-prolyl cis-trans isomerase FKBP1A (Homo sapiens, UniProt P62942); assay: Effective concentration against FK506 binding protein 12 using [3H]-dihydro FK-506
Sequence of Peptidyl-prolyl cis-trans isomerase FKBP1A (P62942 whole entry): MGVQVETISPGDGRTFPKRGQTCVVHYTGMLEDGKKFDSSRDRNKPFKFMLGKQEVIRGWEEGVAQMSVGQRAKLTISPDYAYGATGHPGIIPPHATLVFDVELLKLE

[5] = Ratio of hypothermia (ED50) by Murine (ED50) in vivo; format: functional
[6] = system: Mus musculus; assay: In vivo immunosuppression in murine models by splenic T-cell proliferation assay after peroral administration; format: functional; conditions: po
[7] = organism: Mus musculus; assay: The compound was tested for its inhibitory activity against T-cell proliferation using murine splenic T-cells; format: functional
[8] = system: Rattus norvegicus; assay: The compound was tested for % reduction of nephrotoxicity in rat after intravenous administration at dose 5 mg/kg; format: functional
[9] = system: Rattus norvegicus; assay: Tested for nephrotoxicity in Dawley rats and measured for blood urea nitrogen levels after intravenous administration at dose 5 mg/kg; format: functional
[10] = system: Rattus norvegicus; assay: Tested for nephrotoxicity in Dawley rats and measured for plasma drug level after intravenous administration at dose 5 mg/kg; format: functional
[11] = system: Rattus norvegicus; assay: Tested for nephrotoxicity in Dawley rats and measured for blood urea nitrogen levels after intravenous administration at dose 10 mg/kg; format: functional
[12] = system: Rattus norvegicus; assay: Tested for nephrotoxicity in Dawley rats and measured for plasma drug level after intravenous administration at dose 2.5 mg/kg; format: functional
[13] = system: Rattus norvegicus; assay: The compound was tested for % reduction of nephrotoxicity in rat after intravenous administration at dose 1.7 mg/kg; format: functional
[14] = system: Rattus norvegicus; assay: Tested for nephrotoxicity in Dawley rats and measured for blood urea nitrogen levels after intravenous administration at dose 2.5 mg/kg; format: functional
[15] = system: Rattus norvegicus; assay: Tested for nephrotoxicity in Dawley rats and measured for plasma drug level after intravenous administration at dose 10 mg/kg; format: functional
[16] = system: Rattus norvegicus; assay: The compound was tested for % reduction of nephrotoxicity in rat after intravenous administration at dose 20 mg/kg; NE denotes no effect; format: functional, organism-based; design: dose 20 mg/kg
[17] = system: Rattus norvegicus; assay: The compound was tested for % reduction of nephrotoxicity in rat after intravenous administration at dose 20 mg/kg; format: functional
[18] = system: Rattus norvegicus; assay: Tested for nephrotoxicity in Dawley rats and measured for plasma drug level after intravenous administration at dose 40 mg/kg; format: functional
[19] = system: Rattus norvegicus; assay: Tested for nephrotoxicity in Dawley rats and measured for blood urea nitrogen levels after intravenous administration at dose 40 mg/kg; format: functional
[20] = system: Rattus norvegicus; assay: Tested for nephrotoxicity in Dawley rats and measured for plasma drug level after intravenous administration at dose 20 mg/kg; format: functional
[21] = system: Rattus norvegicus; assay: Tested for nephrotoxicity in Dawley rats and measured for blood urea nitrogen levels after intravenous administration at dose 20 mg/kg; format: functional

SMILES	ED50 [1] [mg/kg]	ED50 [2] [mg/kg]	EC50 [4] [nM]	Therapeutic index [5]	ED50 [6] [mg/kg]	IC50 [7] [nM]	other results
CC[C@@H]1/C=C(\C)C[C@H](C)C[C@H](OC)[C@H]2O[C@@](O)(C(=O)C(=O)N3CCCC[C@H]3C(=O)O[C@H](/C(C)=C/C3CC[C@@H](OC[C@@H](O)c4ccc(F)c(F)c4)[C@H](OC)C3)[C@H](C)[C@H](O)CC1=O)[C@H](C)C[C@@H]2OC (stereo partly specified)	10	0.19	7.5	52	2.8	0.14	Reduction [3]: 44%
CC[C@@H]1/C=C(\C)C[C@H](C)C[C@H](OC)[C@H]2O[C@@](O)(C(=O)C(=O)N3CCCC[C@H]3C(=O)O[C@H](/C(C)=C/C3CC[C@@H](OC[C@H](O)c4cccc(C(F)(F)F)c4)[C@H](OC)C3)[C@H](C)[C@H](O)CC1=O)[C@H](C)C[C@@H]2OC (stereo partly specified)	13.7	0.29	45	47	5	0.38	Reduction [8]: 51%
C=CC[C@@H]1/C=C(\C)C[C@H](C)C[C@H](OC)[C@H]2O[C@@](O)(C(=O)C(=O)N3CCCC[C@H]3C(=O)O[C@H](/C(C)=C/[C@@H]3CC[C@@H](O)[C@H](OC)C3)[C@H](C)C(O)CC1=O)[C@H](C)C[C@@H]2OC (single isomer, unassigned) [TACROLIMUS ANHYDROUS]	3.7	0.22	–	–	2.6	0.2	Nephrotoxicity [9]: 21 mg/dL; Nephrotoxicity [10]: 45 ng/mL; Nephrotoxicity [11]: 26 mg/dL; Nephrotoxicity [12]: 13 ng/mL; Reduction [13]: 45%; Nephrotoxicity [14]: 18.1 mg/dL; Nephrotoxicity [15]: 611 ng/mL
CC[C@@H]1/C=C(\C)C[C@H](C)C[C@H](OC)[C@H]2O[C@@](O)(C(=O)C(=O)N3CCCC[C@H]3C(=O)O[C@H](/C(C)=C/C3CC[C@@H](OC[C@@H](O)c4cccc(C(F)(F)F)c4)[C@H](OC)C3)[C@H](C)[C@H](O)CC1=O)[C@H](C)C[C@@H]2OC (stereo partly specified)	12.8	0.31	45	41	3.7	0.38	Reduction [16]: inactive
CC[C@@H]1/C=C(\C)C[C@H](C)C[C@H](OC)[C@H]2O[C@@](O)(C(=O)C(=O)N3CCCC[C@H]3C(=O)O[C@H](/C(C)=C/C3CC[C@@H](OC[C@@H](O)c4cc5ccccc5s4)[C@H](OC)C3)[C@H](C)[C@H](O)CC1=O)[C@H](C)C[C@@H]2OC (stereo partly specified)	14.8	0.75	11.2	20	6.4	0.39	Reduction [8]: 32%
CC[C@@H]1/C=C(\C)C[C@H](C)C[C@H](OC)[C@H]2O[C@@](O)(C(=O)C(=O)N3CCCC[C@H]3C(=O)O[C@H](/C(C)=C/C3CC[C@@H](OC[C@H](O)c4ccc5ccccc5c4)[C@H](OC)C3)[C@H](C)[C@H](O)CC1=O)[C@H](C)C[C@@H]2OC (stereo partly specified)	14.2	0.38	18	37	3.4	0.34	Reduction [17]: 40%
CC[C@@H]1/C=C(\C)C[C@H](C)C[C@H](OC)[C@H]2O[C@@](O)(C(=O)C(=O)N3CCCC[C@H]3C(=O)O[C@H](/C(C)=C/C3CC[C@@H](OC[C@@H](O)c4ccc5ccccc5c4)[C@H](OC)C3)[C@H](C)[C@H](O)CC1=O)[C@H](C)C[C@@H]2OC (stereo partly specified)	21.6	0.38	21.1	57	3.7	0.33	Nephrotoxicity [9]: 16.3 mg/dL; Nephrotoxicity [18]: 3120 ng/mL; Nephrotoxicity [10]: 239 ng/mL; Nephrotoxicity [11]: 17.7 mg/dL; Nephrotoxicity [19]: 39.3 mg/dL; Nephrotoxicity [20]: 1897 ng/mL; Nephrotoxicity [15]: 478 ng/mL; Reduction [17]: 41%; Nephrotoxicity [21]: 24.7 mg/dL
CC[C@@H]1/C=C(\C)C[C@H](C)C[C@H](OC)[C@H]2O[C@@](O)(C(=O)C(=O)N3CCCC[C@H]3C(=O)O[C@H](/C(C)=C/C3CC[C@@H](OC[C@H](O)c4ccc(F)c(F)c4)[C@H](OC)C3)[C@H](C)[C@H](O)CC1=O)[C@H](C)C[C@@H]2OC (stereo partly specified)	13.7	0.19	13.6	72	3.9	0.11	Reduction [8]: 54%
CC[C@@H]1/C=C(\C)C[C@H](C)C[C@H](OC)[C@H]2O[C@@](O)(C(=O)C(=O)N3CCCC[C@H]3C(=O)O[C@H](/C(C)=C/C3CC[C@@H](OC[C@H](O)c4cc(C)cc(C)c4)[C@H](OC)C3)[C@H](C)[C@H](O)CC1=O)[C@H](C)C[C@@H]2OC (stereo partly specified)	7.25	0.49	9	15	4.8	0.34	Reduction [3]: 48%
CC[C@@H]1/C=C(\C)C[C@H](C)C[C@H](OC)[C@H]2O[C@@](O)(C(=O)C(=O)N3CCCC[C@H]3C(=O)O[C@H](/C(C)=C/C3CC[C@@H](OC[C@H](O)c4cc5ccccc5s4)[C@H](OC)C3)[C@H](C)[C@H](O)CC1=O)[C@H](C)C[C@@H]2OC (stereo partly specified)	–	0.53	12	–	5.6	0.47	–
CC[C@@H]1/C=C(\C)C[C@H](C)C[C@H](OC)[C@H]2O[C@@](O)(C(=O)C(=O)N3CCCC[C@H]3C(=O)O[C@H](/C(C)=C/C3CC[C@@H](OC[C@@H](O)c4cc(C)cc(C)c4)[C@H](OC)C3)[C@H](C)[C@H](O)CC1=O)[C@H](C)C[C@@H]2OC (stereo partly specified)	10.3	0.45	7.5	23	4.5	0.23	Reduction [16]: inactive
